Assay results published in publication PMC12728982, “Multichiral Half-Sandwich Ru(II) and Os(II) Anticancer Complexes Containing a Glutathione Synthesis Inhibitor” (Organometallics, 2025).

Experiments:
[1] = system: IGROV-1 human ovarian cancer cells; experiment: Cell cycle arrest by flow cytometry (PI); format: cell-based; details: IGROV-1, 100 μM, 24 h treatment, vs untreated
Description: 2 Effect of Os/Ru-LBSO and glycine complexes at 50 or 100 μM on the phases of the cell cycle of IGROV-1 human ovarian cancer cells compared with untreated (control) cells. Percentage of cells in G1 (black bar, cell growth), S (gray, DNA synthesis), G2/M, (white, growth/mitosis) as determined by flow cytometry after 24 h treatment with complexes. […] Standard deviations calculated for N = 3 *p-value <0.05 comparing to untreated sample.
2.8 Mammalian cell culture
The human ovarian cancer cell line, IGROV-1; the human cervical cancer cell line, HeLa; the human […]; and the human non-cancerous lung fibroblast cell line, MRC5 were cultured in DMEM supplemented with 10% FBS and 100 units/mL of penicillin and 100 µg/mL of streptomycin (1x pen/strep). All cell lines were incubated at 310 K with 5% CO2 and 95% humidity for routine maintenance and during drug treatment. […]
IGROV-1 cells (1 x 10^6 cells per well) were seeded in a 6-well plate and incubated for 24 h at 310 K. Stock solutions (200 µM) of the complexes were prepared by dissolving the compound in 5% (v/v) DMSO followed by dilution with DMEM and then diluted to desired concentrations. All complexes (50 µM and 100 µM) were added to the wells and incubated for 24 h. Cell pellets were collected using 0.25% trypsin and centrifuged (500 x g, 5 mins at 4 °C). Then washed in PBS and fixed with 100% ice-cold ethanol for 20 min on ice. The ethanol […]
was aspirated, cells washed in ice-cold PBS and then stained with 0.2 mg/mL RNase, 0.05 mg/mL propidium iodide (PI) in PBS for 25 min in the dark and on ice. Excess dye was removed, and cells were re-suspended in PBS. Samples were analysed by flow cytometry using the BD

IGROV-1 cells = experiment: Comet assay (DNA damage in single cells); format: cell-based, human; details: IGROV-1, 24 h; 100 μM for Cisplatin and Os-Gly
Description: Comet assays were carried out to determine whether the complexes caused DNA damage in single cells. […] Cisplatin DNA-adducts have been shown previously to inhibit DNA migration through electrophoresis presenting as less tail movement. […] Excess dye was removed, and cells were re-suspended in PBS. Samples were analysed by flow cytometry using the BD FACSMelodyTM Cell Sorter (R653880001) and data analysis on FlowJoTM v10 Software (BD Life Sciences).9 2.11 Apoptosis IGROV-1 cells (1 x 106) were seeded in a 6-well plate and incubated for 24 h at 310 K. Stock solutions (200 μM) of the complexes were prepared by dissolving the compound in 5% (v/v) DMSO followed by dilution with DMEM and then diluted to desired concentrations. All complexes (50 μM and 100 μM) were added to the wells and incubated for 24 h. Cell pellets were collected using 0.25% trypsin and centrifuged (500 x g, 5 mins at 277 K). Cell pellets were washed with PBS and then stained with the commercial Apoptosis Detection Kit-FITC Annexin V and PI (BioLegend; San Diego, USA), as per manufacturer's instructions. Briefly, a staining solution of FITC Annexin V (1 unit/100 μL) diluted 1 in 100 and 1 μg/mL PI was added to the cells (30 min, room temperature). Excess dye was removed, and cells were re-suspended in PBS. Samples were analysed by flow cytometry using the BD FACSMelodyTM Cell Sorter (R653880001) and data analysis on FlowJoTM v10 Software (BD Life Sciences).9 2.12 Comet assay IGROV-1 cells (8×10^5 cells per well) were seeded into 6-well plates and incubated for 24 h. Test compounds (50 μM and 100 μM) were added to the wells and incubated at 3 10 K for 24 h. Cells were enzymatically detached using trypsin and cell concentration adjusted to 2×10^4 cells /mL in ice-cold PBS. 0.4 mL of cell suspension was added to 1.2 mL of 1% low melting point agarose in H 2O, then immediately added to microscope slides pre -coated in 1% agarose. […] Twenty comet images per sample were taken by confocal microscopy and analysed by OpenComet. […]

## [(p-cymene)Os(L-BSO)Cl] [Os-LBSO]
[1]
  G1 arrest (percentage of cells in G1): significantly increased
IGROV-1 cells
  Comet tails vs untreated cells: trend toward longer comet tails but this was not significant
